# Assay results: patent publication US20210301261A1, “HUMAN LIVER MICROPHYSIOLOGY PLATFORM AND SELF ASSEMBLY LIVER ACINUS MODEL AND METHODS OF THEIR USE” (priority 2014, published 2021)
# Entries after “also recorded” stand apart in the source; their conditions may differ. Where two headings read alike, the source gives them in different places.
# Tests used:
# [1] = system: hepatocytes in SALA model (Cyp3A4 signature metabolite); assay: LC-MS of efflux media: metabolic clearance and metabolite production in SALA model; conditions: 5 μM testosterone in influx media; efflux collected over 24 hr at 5 μl/hr; day 10
# Description: (§1) Efflux media was collected for measurements of organ model health using assays for lactate dehydrogenase (LDH) release, and albumin, and urea synthesis. LDH is released from cells under conditions of cytotoxic damage. Albumin and urea are secreted from functional hepatocytes. The media efflux was also used to monitor the presence of drug and metabolic products for PK. When compounds are included in the microfluidic media, hepatocytes are exposed to the compound and often biotransform them to a chemically distinct product. Mass spectrometry is a specific and sensitive method to observe these changes. Typically, ca. 15 microliters of media is collected for each biochemical and mass spec measurement (flow rate=5 microliters per hour.)
# liver [2] = conditions: cited from earlier work; for liver injury incidents/million prescriptions: human; for Human/Animal Toxicology (findings in words, wrapped cells): in vivo
# [3] = system: hepatocytes in SALA model (bile canalicular efflux, BSEP); assay: Bile efflux (CMFDA fluorescence) in SALA model; assay type: cell-based, human; conditions: 50 μM
# SALA model cells = conditions: human
# Description: as §1
# Troglitazone (28 or 180 μM), or caffeine (600 μM, negative control) was introduced into the microfluidic device for 0-28 days.
# [4] = system: hepatocyte sentinel cells; assay: Statistical validation of biosensors in hepatocyte sentinel cells in microplates; assay type: cell-based, human; conditions: 50 μM
# Description: A panel of biosensors was delivered through lentiviral transduction in multiple fluorescent protein colors initially validated in microplates for an acute response. An SSMD level of ≥2 is considered a statistically valid response.
# [5] = in vivo; cited from earlier work
# liver [6] = conditions: cited from earlier work
# U937 cells = assay: TNF-alpha release from LPS activated U937 cells; assay type: cell-based, human
# [7] = system: hepatocytes in SALA model; assay: Propidium iodide uptake of hepatocytes in SALA model; assay type: cell-based, human; conditions: 200 μM trovafloxacin co-treated with 1 ug/ml LPS, compared to vehicle
# Description: (§2) Correlation of propidium iodide (PI) uptake with cell area of hepatocytes is illustrated in FIG. 11. The cytochrome C biosensor is used to measure hepatocyte area in order to perform real-time measurements of apoptosis.
# [8] = system: hepatocytes in SALA model; assay: Hepatocyte area measured in real-time with cytochrome C biosensor in SALA model; assay type: cell-based, human
# Description: as §2
# LX-2 stellate cells = conditions: 30 nM
# Description: Day 21 Immunofluorescence images of a SALA liver vehicle treated 21 days, fixed, and reacted against α-Human Collagen type ½ is provided in panel C. […] Nuclei are false colored blue in all images.
# [9] = system: hepatocytes in SALA model; assay: Oxidative stress response in biosensor transduced hepatocytes in SALA model; assay type: cell-based, human; conditions: 0 to 15 hr treatment period
# Description: Image processing at each time point provides kinetic physiological responses is provided in Panel D.
molecule,measurement,setting,value
C[C@]12CC[C@H]3[C@@H](CCC4=CC(=O)CC[C@@]43C)[C@@H]1CC[C@@H]2O [testosterone],testosterone exits unchanged through the device (ratio of mass area under the curves),[1],27%
Cc1c(C)c2c(c(C)c1O)CCC(C)(COc1ccc(CC3SC(=O)NC3=O)cc1)O2 (stereo not drawn) [Troglitazone],liver injury incidents/million prescriptions,liver [2],Up to 1000 incidents/million prescriptions
same,"Human/Animal Toxicology (findings in words, wrapped cells)",liver [2],"Moderate to severe; also recorded: Variable necrosis,; also recorded: cholestasis,; also recorded: inflammatory"
same,CMFDA dye uptake and efflux in hepatocytes,"[3]; 10 day treatment, monitored 60 minutes, compared to vehicle",slower uptake and inhibition of efflux
same,hepatocyte retention of dye,[3]; at 60 minutes,increased hepatocyte retention of dye
same,"release of LDH, time of peak loss",SALA model cells; 28 μM,~13 days
same,"release of LDH, time of peak loss",SALA model cells; 180 μM,~4 days
same,"SSMD, Bile canalicular efflux (CMFDA)",[4],11
same,Cmax,[5],1.8 µM
same,MOT (wrapped cells),liver [6],Mitochondrial; also recorded: BSEP inhibitor
CS(=O)(=O)Nc1ccc([N+](=O)[O-])cc1Oc1ccccc1 [Nimesulide],"LDH leakage, time of peak",SALA model cells; 210 μM,~5 days
Lipopolysaccharide [LPS],EC50 of TNF-alpha release,U937 cells,0.7 mg/L
O=c1n(CCCN2CCN(c3cccc(Cl)c3)CC2)nc2ccccn12 [Trazodone],liver injury incidents/million prescriptions,liver [2],0.21 incidents/million prescriptions
same,"Human/Animal Toxicology (findings in words, wrapped cells)",liver [2],"extremely rare liver; also recorded: Mild ↑transaminases,"
same,Cmax,[5],5 µM
same,MOT (wrapped cells),liver [6],No known
N[C@@H]1[C@H]2CN(c3nc4c(cc3F)c(=O)c(C(=O)O)cn4-c3ccc(F)cc3F)C[C@@H]12 [trovafloxacin],propidium iodide (PI) uptake,[7],increased PI uptake
same,propidium iodide (PI) uptake,[7]; listed as trovofloxacin,increase in propidium iodide uptake
same,hepatocyte area,"[8]; 200 μM trovafloxacin alone, day 7",decrease in hepatocyte area
same,cell area of hepatocytes,"[8]; 200 μM trovafloxacin co-treated with 1 ug/ml LPS, compared to vehicle (1% DMSO)",reduction in cell area
same,hepatocyte area,"[8]; 200 μM trovafloxacin plus 1 ug/ml LPS, day 5",decrease in hepatocyte area
CN(Cc1cnc2nc(N)nc(N)c2n1)c1ccc(C(=O)N[C@@H](CCC(=O)O)C(=O)O)cc1 [methotrexate],expression of collagen type 1A2 protein in LX-2 stellate cells,"LX-2 stellate cells; day 21, relative to vehicle control",increased
same,"LX-2 stellate cell division, transmigration and accumulation in hepatocyte layer","LX-2 stellate cells; over 21 days, compared with vehicle (1.0% DMSO)",accelerated rate
CCc1nn(CCCN2CCN(c3cccc(Cl)c3)CC2)c(=O)n1CCOc1ccccc1 [Nefazodone],liver injury incidents/million prescriptions,liver [2],105 incidents/million incidents/million prescriptions
same,"Human/Animal Toxicology (findings in words, wrapped cells)",liver [2],"Acute hepatitis; also recorded: Centrilobular (zone 3); also recorded: Cholestasis, apoptosis"
same,ROS generation,[9],increase of ROS generation
same,mitochondrial function,[9],decrease in mitochondrial function
same,oxidative stress in hepatocytes,[9],induces oxidative stress
same,Cmax,[5],0.9 µM
same,MOT (wrapped cells),liver [6],Mitochondrial and ROS and Bile Efflux
